Reference: PubChem BioAssay (NCI)
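Method: 48-hour compound exposure of cells in 96-well plates, five concentrations, linear interpolation of endpoints. Definition used: TGI = concentration required for complete inhibition of growth.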

Key:
Test in all cases: growth of human tumour cells (NCI), 48 h
786-0 renal = test system: 786-0 renal
A498 renal = test system: A498 renal
A549 NSCLC = test system: A549 NSCLC
ACHN renal = test system: ACHN renal
CAKI-1 renal = test system: CAKI-1 renal
CCRF-CEM leukemia = test system: CCRF-CEM leukemia
COLO 205 colon = test system: COLO 205 colon
DLD-1 colon = test system: DLD-1 colon
DMS 114 small cell lung = test system: DMS 114 small cell lung
DMS 273 small cell lung = test system: DMS 273 small cell lung
EKVX NSCLC = test system: EKVX NSCLC
HCC-2998 colon = test system: HCC-2998 colon
HCT-116 colon = test system: HCT-116 colon
HCT-15 colon = test system: HCT-15 colon
HL-60(TB) leukemia = test system: HL-60(TB) leukemia
HOP-18 NSCLC = test system: HOP-18 NSCLC
HOP-62 NSCLC = test system: HOP-62 NSCLC
HT29 colon = test system: HT29 colon
IGROV1 ovarian = test system: IGROV1 ovarian
K-562 leukemia = test system: K-562 leukemia
KM12 colon = test system: KM12 colon
KM20L2 colon = test system: KM20L2 colon
LOX IMVI melanoma = test system: LOX IMVI melanoma
LXFL 529 NSCLC = test system: LXFL 529 NSCLC
M14 melanoma = test system: M14 melanoma
M19-MEL melanoma = test system: M19-MEL melanoma
MALME-3M melanoma = test system: MALME-3M melanoma
MOLT-4 leukemia = test system: MOLT-4 leukemia
NCI-H226 lung = test system: NCI-H226 lung
NCI-H23 lung = test system: NCI-H23 lung
NCI-H460 lung = test system: NCI-H460 lung
NCI-H522 lung = test system: NCI-H522 lung
OVCAR-3 ovarian = test system: OVCAR-3 ovarian
OVCAR-4 ovarian = test system: OVCAR-4 ovarian
OVCAR-5 ovarian = test system: OVCAR-5 ovarian
OVCAR-8 ovarian = test system: OVCAR-8 ovarian
RPMI-8226 leukemia = test system: RPMI-8226 leukemia
RXF 393 renal = test system: RXF 393 renal
RXF-631 renal = test system: RXF-631 renal
SF-268 CNS = test system: SF-268 CNS
SF-295 CNS = test system: SF-295 CNS
SF-539 CNS = test system: SF-539 CNS
SK-MEL-2 melanoma = test system: SK-MEL-2 melanoma
SK-MEL-28 melanoma = test system: SK-MEL-28 melanoma
SK-MEL-5 melanoma = test system: SK-MEL-5 melanoma
SK-OV-3 ovarian = test system: SK-OV-3 ovarian
SN12C renal = test system: SN12C renal
SNB-19 CNS = test system: SNB-19 CNS
SNB-75 CNS = test system: SNB-75 CNS
SNB-78 CNS = test system: SNB-78 CNS
SR leukemia = test system: SR leukemia
SW-620 colon = test system: SW-620 colon
TK-10 renal = test system: TK-10 renal
U251 CNS = test system: U251 CNS
UACC-257 melanoma = test system: UACC-257 melanoma
UACC-62 melanoma = test system: UACC-62 melanoma
UO-31 renal = test system: UO-31 renal
HOP-92 NSCLC = test system: HOP-92 NSCLC
XF 498 CNS = test system: XF 498 CNS

Measured: TGI

CC(=O)c1ccc(NC(=O)/C(Cc2ccccn2)=N/NC(=O)C[N+](C)(C)C)cc1
not listed: HOP-92 NSCLC | XF 498 CNS
> 100 µM: all other assays above

O=C1CCC(c2ccccc2)C(O)(C(=O)O)C1 (configuration not stated)
not listed: DMS 114 small cell lung | RXF 393 renal | XF 498 CNS
> 100 µM: all other assays above

N#CCCN(CCC#N)c1ccc(/C=C2\N=C(CN3C(=O)c4ccccc4C3=O)OC2=O)cc1
not listed: CCRF-CEM leukemia | COLO 205 colon | DLD-1 colon | HOP-18 NSCLC | NCI-H23 lung | RXF 393 renal | SNB-78 CNS | TK-10 renal | HOP-92 NSCLC
> 100 µM: all other assays above

NC1C2(CCCCCC2)NC(=O)C12CCCCCC2 (configuration not stated)
not listed: HCC-2998 colon | KM20L2 colon | M19-MEL melanoma | NCI-H226 lung | RPMI-8226 leukemia
> 100 µM: all other assays above
